Laboratory results reported in the supplement of paper PMC5844555.

Legend:
Test in all cases: 3' UTR reporter interaction score (median-centred robust z-score of log2 firefly/Renilla activity); higher = less repression of the 3' UTR reporter
Settings in all cases: HEK293T; 48 h
TP53 = test system: TP53
Method in brief: (§1)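 HEK293T cells (10,000/well, 96-well plates) were co-transfected using DharmaFECT Duo with 100 ng firefly luc2P reporter carrying the gene's 3' UTR, 20 ng Renilla pRL-TK control and 2.5 pmol miRNA mimic. Dual-luciferase activities were read 48 h post-transfection. The interaction score is the log-transformed firefly/Renilla ratio as a per-plate robust z-score (median, median absolute deviation), median-centred per miRNA and averaged over at least two independent screens; more negative indicates interaction.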

PHOX2B = test system: PHOX2B
Method in brief: as §1

NOTCH1 = test system: NOTCH1
Method in brief: as §1

MYT1L = test system: MYT1L
Method in brief: as §1

MYB = test system: MYB
Method in brief: as §1

BRCA2 = test system: BRCA2
Method in brief: as §1

FBXW7 = test system: FBXW7
Method in brief: as §1

MYC = test system: MYC
Method in brief: as §1

HRAS = test system: HRAS
Method in brief: as §1

RB1 = test system: RB1
Method in brief: as §1

MYCN = test system: MYCN
Method in brief: as §1

EZH2 = test system: EZH2
Method in brief: as §1

PHF6 = test system: PHF6
Method in brief: as §1

ZEB2 = test system: ZEB2
Method in brief: as §1

Sequence	3' UTR reporter interaction score (TP53)	3' UTR reporter interaction score (PHOX2B)	3' UTR reporter interaction score (NOTCH1)	3' UTR reporter interaction score (MYT1L)	3' UTR reporter interaction score (MYB)	3' UTR reporter interaction score (BRCA2)	3' UTR reporter interaction score (FBXW7)	3' UTR reporter interaction score (MYC)	3' UTR reporter interaction score (HRAS)	3' UTR reporter interaction score (RB1)	3' UTR reporter interaction score (MYCN)	3' UTR reporter interaction score (EZH2)	3' UTR reporter interaction score (PHF6)	3' UTR reporter interaction score (ZEB2)
ACUUGUAUGCUAGCUCAGGUAG	-0.611	0.171	-2.55	0.252	-0.993	0.171	0.132	0.231	0.169	0.468	-0.194	0.301	0.16	0.0953
AGACCAUGGGUUCUCAUUGU	-0.82	-1.43	-0.0186	0.673	-0.2	-2.41	-0.214	0.53	-0.0387	-1.2	0.149	0.304	1.61	-1.1
AGACCCUGGUCUGCACUCUAU	-5.07	-0.928	-0.49	-1.4	0.748	0.647	1.02	2.47	1.38	-2.99	1.92	2.76	-3.41	-0.0019
AGACCUGGCCCAGACCUCAGC	0.562	-0.381	-0.568	-3.18	0.0206	-0.79	0.099	0.0891	-0.381	-2.21	0.863	0.316	-0.218	-0.702
AGACUUCCCAUUUGAAGGUGGC	-0.0594	0.285	-0.842	0.482	0.287	-0.566	0.497	-0.381	-0.109	0.0148	-2.21	0.311	1.01	0.705
AGAGGCUGGCCGUGAUGAAUUC	-1.7	1.42	0.488	-1.95	0.549	-0.104	-0.536	-1.78	-0.467	-0.425	0.202	0.351	2.37	0.958
AGAGGUAGUAGGUUGCAUAGU	0.943	-0.956	-0.39	-0.701	0.728	0.509	-0.0422	-2.12	1	-0.186	-3.2	-3.25	0.956	-0.685
AGAGGUAUAGGGCAUGGGAAAA	-0.403	-0.404	0.463	0.692	0.665	0.942	-0.74	0.244	-0.616	-0.615	-2.96	-0.166	0.541	1.12
AGAUCGACCGUGUUAUAUUCGC	-2.1	-0.0818	0.965	-1.38	-1.19	0.451	-0.751	0.022	0.57	0.976	0.592	0.0389	0.689	-1.03
AGCAGCAUUGUACAGGGCUAUCA	-0.509	-0.507	-0.476	-2.1	-2.18	1.96	-2.69	0.869	0.106	1.3	0.215	-1	1.3	1.43
AGCAGCAUUGUACAGGGCUAUGA	0.727	1.07	-0.182	-1.07	-1.03	0.461	-0.997	1.13	-0.255	-1.15	0.0597	-0.463	2.88	0.465
AGCUACAUCUGGCUACUGGGUCUC	0.614	0.255	0.41	-0.398	-3.44	-0.144	0.465	0.941	1.2	-3.28	1.39	-0.0907	-0.555	-1.04
AGCUACAUUGUCUGCUGGGUUUC	0.277	0.602	0.703	-0.38	-4.52	-0.328	1.22	0.427	0.0503	-3.13	0.451	0.0119	-0.314	-0.124
AGCUCGGUCUGAGGCCCCUCAG	0.0655	-1.22	1.23	3.65	0.304	1.86	0.253	-0.504	0.284	3.69	-0.643	-0.671	0.229	2.05
AGCUGGUGUUGUGAAUC	0.136	0.54	0.152	0.16	0.129	-0.493	-0.398	0.179	-0.334	-0.243	0.275	-0.157	-0.508	0.43
AGCUGUCUGAAAAUGUCUU	0.132	1.04	-0.774	0.171	-0.536	-0.293	0.675	0.303	-0.208	0.19	-0.701	-0.132	-0.786	-0.552
AGGAAGCCCUGGAGGGGCUGGAGGU	0.127	1.18	-1.34	1.24	0.39	-1.21	-0.101	-0.314	0.456	-0.165	1.43	-0.359	-0.529	-0.152
AGGAAUGUUCCUUCUUUGCC	-0.812	2.32	-0.469	-0.098	-0.0682	-1.4	-2.13	0.63	0.683	0.276	-0.0855	-0.309	-0.446	2.6
AGGACCUGCGGGACAAGAUUCUU	-0.45	1.33	0.243	-0.0205	0.35	0.115	-0.188	-0.0464	-0.0697	0.102	-0.207	-0.425	-0.476	0.526

Sequence	3' UTR reporter interaction score (TP53)	3' UTR reporter interaction score (PHOX2B)	3' UTR reporter interaction score (NOTCH1)	3' UTR reporter interaction score (MYT1L)	3' UTR reporter interaction score (MYB)	3' UTR reporter interaction score (BRCA2)	3' UTR reporter interaction score (FBXW7)	3' UTR reporter interaction score (MYC)	3' UTR reporter interaction score (HRAS)	3' UTR reporter interaction score (RB1)	3' UTR reporter interaction score (MYCN)	3' UTR reporter interaction score (EZH2)	3' UTR reporter interaction score (PHF6)	3' UTR reporter interaction score (ZEB2)
AGGAGGCAGCGCUCUCAGGAC	-0.457	0.109	-2.44	2.05	0.571	-0.741	-0.582	-1.13	-0.534	0.463	0.868	-1.61	1.36	2.03
AGGCACGGUGUCAGCAGGC	-0.839	0.32	0.0125	0.478	0.171	-0.203	0.393	0.509	-0.153	0.0845	-0.274	0.629	0.283	-0.659
AGGCAGUGUAGUUAGCUGAUUGC	0.285	-1.02	-3.48	0.754	-4.27	0.647	-0.242	-1.05	1.1	0.138	-5.02	1.87	-2.27	-0.539
AGGCAGUGUAUUGUUAGCUGGC	1.19	0.369	-4.34	0.156	-4.72	1.59	0.842	-2.42	0.697	-1.56	-5.92	-0.179	-4.67	0.15
AGGCGGGGCGCCGCGGGACCGC	-0.353	-0.317	0.236	-0.425	-0.412	-0.123	-0.475	-0.234	-0.439	0.467	-0.386	-1.53	1.42	0.258
AGGCUGCGGAAUUCAGGAC	-1.78	-0.147	0.93	1.31	0.132	-1.7	0.871	-0.912	-1.18	0.76	0.119	-1.27	1.89	2.21
AGGGAUCGCGGGCGGGUGGCGGCCU	0.628	-1.25	0.433	-0.194	0.376	0.916	-0.971	-0.321	-0.484	-0.0484	-0.927	-0.298	2.46	-0.0578
AGGGCCCCCCCUCAAUCCUGU	-0.172	0.177	-0.584	0.617	0.144	0.425	0.757	-0.761	-0.753	1.06	-0.0892	0.205	0.378	1.65
AGGGGGAAAGUUCUAUAGUCCU	-0.601	1.33	-1.57	-0.154	1.55	-1.55	0.691	-1.56	0.225	0.755	0.426	-1.49	1.82	2.84
AGGGGUGGUGUUGGGACAGCUCCGU	0.0145	-0.841	-4.27	-0.319	-0.179	-0.768	0.925	-0.499	-1.12	0.429	0.408	0.203	-0.137	0.212
AGGGUAAGCUGAACCUCUGAU	0.182	1.64	-0.542	0.432	0.366	0.0158	2.4	-0.643	-0.74	-1.03	1.35	-0.149	-0.384	-0.308
AGGGUGUUUCUCUCAUCUCU	0.571	2.27	-1.24	-2.32	1.44	-0.403	-0.794	0.84	0.396	-0.774	1.22	-0.619	1.32	-0.283
AGGUUACCCGAGCAACUUUGCA	-1.44	2.07	0.652	2.75	1.71	-1.98	-1.16	-0.29	-1.62	2.97	0.0957	-1.68	0.436	0.562
AGGUUGACAUACGUUUCCC	-0.178	0.494	1.09	0.798	0.862	-0.754	-0.16	-0.726	-1.43	0.54	-0.377	-0.54	0.251	1.11
AGUAUGUUCUUCCAGGACAGAAC	0.258	-1.01	-0.607	-0.575	0.712	-2.15	0.574	0.576	0.113	0.243	-0.169	0.482	-0.447	0.181
AGUAUUCUGUACCAGGGAAGGU	0.107	0.0656	0.758	-1.07	-0.25	0.623	1.75	0.255	-0.0345	-0.386	0.786	-2.56	-1.2	-1.77
AGUGACAUCACAUAUACGGCAGC	-0.15	0.805	0.273	0.969	0.233	-1.13	-1.31	-0.366	-0.649	0.945	0.321	-0.788	0.28	1.55
AGUGGGGAACCCUUCCAUGAGGA	-3.21	-0.69	-0.0192	-1.79	0.186	0.0202	0.423	-0.465	0.144	0.472	0.0621	-0.974	0.14	1.02
AGUGGUUUUACCCUAUGGUAG	-3.34	1.56	-0.395	1.52	2.26	-2.62	-0.0104	0.603	-0.669	1.79	0.551	0.908	1.32	-0.644
